Data on seven molecules can be found in patent publication US9801850B2, “Antibacterial agent” (OSAKA UNIVERSITY, priority 2009, dated 2017).

In test [1] the test system is MSSA ATCC25923. Nature of the test: MIC with addition of PG, LPS or D-Ala-D-Ala (Example 3). The note with it: for MIC: MSSA (ATCC25923); for change in MIC by the addition of PG: MSSA ATCC25923, PG 30 μg/ml. Type of test: cell-based, Staphylococcus aureus. The protocol: (§1) Regarding EGCG-C16, whether or not the antibacterial action thereof against MSSA and MRSA is inhibited by the addition of: peptidoglycan (PG) or D-Ala-D-Ala, which are each a cell wall component; or lipopolysaccharide (LPS), which is an outer membrane component, was examined. The MIC measurement was carried out in the manner described in Section (2) of Example 2.
(§2) In Example 3, EGCG-C16 prepared in Example 1 was used as an antibacterial agent. In Comparative Example 3, unsubstituted EGCG was used as an antibacterial agent. […] Antibacterial agent solutions of EGCG-C16 and EGCG were prepared in the same manner as described in Section (2) of Example 1. Antibacterial agent solutions of the antibacterial agents other than EGCG-C16 and EGCG were prepared by dissolving them in PBS.
(§3) As additives, PG (Peptidoglycan Staphylococcus aureus, SIGMA-ALDRICH), D-Ala-D-Ala (SIGMA-ALDRICH), and LPS (Lipopolysaccharide Salmonella, SIGMA-ALDRICH) were provided. Each of the additives was dissolved in PBS, and the resultant solution was used as an additive solution.
(§4) Dilution series of the antibacterial agent solutions were prepared. Each of them was dispensed to a 96-well plate. Further, the additive solution was added thereto and mixed. After that, a bacterial culture solution of MRSA ATCC43300 or MSSA ATCC25923 was added thereto and cultured at 37° C. for 18 hours. In the mixture of the antibacterial agent solution, the additive solution, and the bacterial culture solution, the final concentrations of PG, D-Ala-D-Ala, and LPS were each set to 30 μg/ml. Unless otherwise stated, the minimum inhibitory concentration (MIC) was calculated in the same manner as described in Section (2) of Example 2.

Test [2] relates to MRSA ATCC43300. Described as above. The test is classed as cell-based, Staphylococcus aureus. Conditions: for MIC: MRSA (ATCC43300); for change in MIC by the addition of PG: MRSA ATCC43300, PG 30 μg/ml. Here is the method:
as §1, §2, §3, §4

The subject of test [3] is MSSA ATCC25923. Nature of the test: Membrane damaging properties, SYTOX Green fluorescence (Example 4). Type of test: cell-based, Staphylococcus aureus. The note with it: 37° C., 15 minutes, EGCG derivative 4-32, EGCG 8-128, NISIN 1-8 μg/ml, FIG. 3. Here is the method: (§5) As an antibacterial agent, the EGCG-C16 prepared in Example 1 was used in Example 4; EGCG was used in Comparative Example 4; and membrane-damaging peptide NISIN (MP Biomedicals) was used in a reference example. Antibacterial agent solutions of EGCG-C16 and EGCG were prepared by dissolving them in DMSO so as to achieve top concentrations, respectively. An antibacterial agent solution of the other antibacterial agent was prepared by dissolving it in PBS and diluted with PBS as appropriate. The influence of DMSO used for dissolving the antibacterial agents also was considered.
MSSA ATCC25923 and MRSA ATCC43300 were subjected to shaking culture in MH-broths (Difco) until they reached a late stage in the exponential growth phase. The thus-obtained culture solutions were each centrifuged at 7000 rpm for 10 minutes, and bacterial cells that had settled were suspended in PBS. The suspension of the bacterial cells was added to wells of a 384 black plate, and each of the antibacterial agent solutions was further added thereto and mixed. The resultant mixture was incubated at 37° C. for 15 minutes. Subsequently, a dead cell-staining dye (trade name “SYTOX Green”, LONZA) was mixed in each well so that the concentration thereof became 10 μmol/l, and the resultant mixture was incubated at 37° C. for 10 minutes. […] On the other hand, as a control, the fluorescence intensity was measured in the same manner, except that PBS or 10% DMSO was added instead of the antibacterial agent solutions. Then, regarding each of the MSSA and MRSA, the ratio of the fluorescence intensity when each of the agents was added was calculated assuming that the fluorescence intensity obtained in the control (PBS) was 1.

The subject of test [4] is MRSA ATCC43300. The test is described as above. Type of test: cell-based, Staphylococcus aureus. Conditions: 37° C., 15 minutes, EGCG derivative 4-32, EGCG 8-128, NISIN 1-8 μg/ml, FIG. 3. Here is the method:
as §5
MSSA ATCC25923 and MRSA ATCC43300 were subjected to shaking culture in MH-broths (Difco) until they reached a late stage in the exponential growth phase. The thus-obtained culture solutions were each centrifuged at 7000 rpm for 10 minutes, and bacterial cells that had settled were suspended in PBS. The suspension of the bacterial cells was added to wells of a 384 black plate, and each of the antibacterial agent solutions was further added thereto and mixed. The resultant mixture was incubated at 37° C. for 15 minutes. Subsequently, a dead cell-staining dye (trade name “SYTOX Green”, LONZA) was mixed in each well so that the concentration thereof became 10 μmol/l, and the resultant mixture was incubated at 37° C. for 10 minutes. The final concentrations of the respective antibacterial agents were as follows: 4, 8, 16, and 32 μg/ml for the EGCG derivative; 8, 16, 32, 64, and 128 μg/ml for EGCG; and 1, 2, 4, and 8 μg/ml for NISIN. […] On the other hand, as a control, the fluorescence intensity was measured in the same manner, except that PBS or 10% DMSO was added instead of the antibacterial agent solutions. Then, regarding each of the MSSA and MRSA, the ratio of the fluorescence intensity when each of the agents was added was calculated assuming that the fluorescence intensity obtained in the control (PBS) was 1.

Test [5] relates to methicillin-resistant Staphylococcus aureus (MRSA) ATCC43300. Nature of the test: MIC, broth microdilution (Example 1). Type of test: cell-based. The note with it: for MIC: MRSA ATCC43300, MH-broth, 37° C., 18 hours. The protocol: (§6) Methicillin-susceptible Staphylococcus aureus (MSSA) NCTC8325 and methicillin-resistant Staphylococcus aureus (MRSA) ATCC43300 were used as bacteria. The bacteria of each type were cultured using Mueller-Hinton Broth (MH-broth, Difco) as a medium. Then, the minimum inhibitory concentration (MIC) of each of the EGCG derivatives was measured by a broth microdilution method in accordance with the Clinical and Laboratory Standards Institute (CLSI) guidelines (hereinafter the same).
(§7) First, each of the EGCG derivatives was dissolved in 100% dimethyl sulfoxide (DMSO, Wako Pure Chemical Industries, Ltd.) so that the concentration thereof became 5120 μg/ml. The resultant solution was diluted with DMSO or sterile distilled water so as to prepare two-fold dilution series of antibacterial agent solutions. […] Each of these antibacterial agent solutions was dispensed to wells of a 96-well plate. The concentration of the EGCG derivative in the antibacterial agent solution dispensed to the wells was set to be 10 times as high as the final concentration. On the other hand, the bacteria were cultured in the MH-broth at 37° C. overnight, and the thus-obtained pre-culture solution was diluted with a new MH-broth so that the concentration thereof in the MH-broth became 10^−4 (10^4-fold dilution), thus preparing a bacterial culture solution of about 1×10^5 CFU/ml (CFU: Colony Forming Unit, the number of viable cells). The bacterial culture solution was further added to each well, and the mixture was cultured at 37° C. for 18 hours. The ratio (volume ratio) between the antibacterial agent solution and the bacterial culture solution added to each well was set to 1:9 (the antibacterial agent solution:the bacterial culture solution), and the volume of the mixture of them per well was set to 100 μl in total. The final concentration of the EGCG derivative in the mixture was set to 8 μg/ml to 512 μg/ml, and the number of viable cells in the mixture was set to about 1×10^5 CFU/ml. Then, after the completion of the culture, the MIC was determined. Also, the turbidity (OD600 nm) was measured using a plate reader so as to identify minor differences.
(§8) As Comparative Example 1, the same procedures as in Example 1 were performed, except that unsubstituted EGCG was used as an antibacterial agent instead of the EGCG derivatives of Example 1. Furthermore, as a control, the same procedures as in Example 1 were performed, except that sterile distilled water, 100% DMSO, or 50% DMSO was used instead of the antibacterial agent solutions containing the EGCG derivatives.

For test [6], the system named is Methicillin-susceptible Staphylococcus aureus (MSSA) NCTC8325. Nature of the test: MIC, broth microdilution (Example 1). Conditions: MH-broth, 37° C., 18 hours. Type of test: cell-based. Here is the method:
as §6, §7, §8
On the technique in general: Broth dilution looks for growth in wells or tubes with falling amounts of substance.

Where [7] appears, read: +D-Ala-D-Ala (30 μg/mL), lower part of Table 9.
The mark [8] stands for this setting: +LPS (30 μg/mL), upper part of Table 9.
Setting [9] is: +PG (30 μg/mL), lower part of Table 9 (PG/D-Ala-D-Ala series).
Setting [10] is: MH-broth free of additives, lower part of Table 9 (PG/D-Ala-D-Ala series).
[11] abbreviates: MH-broth free of additives, upper part of Table 9 (PG/LPS series).
The mark [12] stands for this setting: +PG (30 μg/mL), upper part of Table 9 (PG/LPS series).

≈ marks a conversion by molar mass, not a printed value.

The term MIC denotes the smallest concentration in the dilution series that meets the test's criterion for growth inhibition. Low values mean inhibition by little substance, high ones a need for much substance. In the case of `CC1(C)S[C@@H]2[C@H](NC(=O)[C@H](N)c3ccccc3)C(=O)N2[C@H]1C(=O)O` [ABPC, ampicillin], the MIC was found to be 0.25 µg/mL (≈ 0.715 µM) against MSSA ATCC25923 [1] (setting [7]); 0.25 µg/mL (≈ 0.715 µM) against MSSA ATCC25923 [1] (setting [8]); 0.25 µg/mL (≈ 0.715 µM) in the test with MSSA ATCC25923 [1] (setting [9]); 0.25 µg/mL (≈ 0.715 µM) in the test with MSSA ATCC25923 [1] (setting [10]); 0.25 µg/mL (≈ 0.715 µM) in the test on MSSA ATCC25923 [1] (setting [11]); 16 µg/mL (≈ 45.8 µM) against MRSA ATCC43300 [2] (setting [7]). The minimum inhibitory concentration (MIC) was 32 µg/mL (≈ 91.6 µM) against MRSA ATCC43300 [2] (setting [8]); 8 µg/mL (≈ 22.9 µM) against MRSA ATCC43300 [2] (setting [9]); 32 µg/mL (≈ 91.6 µM) in the test on MRSA ATCC43300 [2] (setting [12]); 16 µg/mL (≈ 45.8 µM) with MRSA ATCC43300 [2] (setting [10]); 32 µg/mL (≈ 91.6 µM) with MRSA ATCC43300 [2] (setting [11]).

NISIN [reference compound]: the “fluorescence intensity ratio of SYTOX Green (control PBS = 1)” value in the test on MSSA ATCC25923 [3] and with MRSA ATCC43300 [4] was “very high fluorescence intensity ratio” in each case.

For `CN[C@H](CC(C)C)C(=O)N[C@H]1C(=O)N[C@@H](CC(N)=O)C(=O)N[C@H]2C(=O)N[C@H]3C(=O)N[C@H](C(=O)N[C@H](C(=O)O)c4cc(O)cc(O)c4-c4cc3ccc4O)[C@H](O)c3ccc(c(Cl)c3)Oc3cc2cc(c3O[C@@H]2O[C@H](CO)[C@@H](O)[C@H](O)[C@H]2O[C@H]2C[C@](C)(N)[C@H](O)[C@H](C)O2)Oc2ccc(cc2Cl)[C@H]1O` [VCM, vancomycin], the MIC against MSSA ATCC25923 [1] (setting [7]) was 16 µg/mL (≈ 11 µM); against MSSA ATCC25923 [1] (setting [8]), 2 µg/mL (≈ 1.38 µM); with MSSA ATCC25923 [1] (setting [9]), 2 µg/mL (≈ 1.38 µM); in the test on MSSA ATCC25923 [1] (setting [12]), 4 µg/mL (≈ 2.76 µM); against MSSA ATCC25923 [1] (setting [10]), 1 µg/mL (≈ 0.69 µM); in the test with MSSA ATCC25923 [1] (setting [11]), 2 µg/mL (≈ 1.38 µM). The minimum inhibitory concentration (MIC) amounted to 16 µg/mL (≈ 11 µM) against MRSA ATCC43300 [2] (setting [7]); 2 µg/mL (≈ 1.38 µM) against MRSA ATCC43300 [2] (setting [8]); 2 µg/mL (≈ 1.38 µM) with MRSA ATCC43300 [2] (setting [9]); 4 µg/mL (≈ 2.76 µM) in the test with MRSA ATCC43300 [2] (setting [12]); 1 µg/mL (≈ 0.69 µM) against MRSA ATCC43300 [2] (setting [10]); 2 µg/mL (≈ 1.38 µM) with MRSA ATCC43300 [2] (setting [11]). Further, the “change in MIC by the addition of PG” value with MSSA ATCC25923 [1] and in the test on MRSA ATCC43300 [2] was “doubled” throughout.

For teicoplanin, the minimum inhibitory concentration (MIC) against MSSA ATCC25923 [1] (setting [7]) is 32 µg/mL; against MSSA ATCC25923 [1] (setting [8]) it was 1 µg/mL; in the test with MSSA ATCC25923 [1] (setting [9]), 2 µg/mL; against MSSA ATCC25923 [1] (setting [12]) it was 2 µg/mL; in the test on MSSA ATCC25923 [1] (setting [10]), 1 µg/mL; against MSSA ATCC25923 [1] (setting [11]) it was 1 µg/mL. Besides, the MIC stood at 16 µg/mL in the test with MRSA ATCC43300 [2] (setting [7]); 1 µg/mL against MRSA ATCC43300 [2] (setting [8]); 1 µg/mL in the test with MRSA ATCC43300 [2] (setting [9]); 1 µg/mL with MRSA ATCC43300 [2] (setting [12]); 0.5 µg/mL against MRSA ATCC43300 [2] (setting [10]); 0.5 µg/mL with MRSA ATCC43300 [2] (setting [11]). The “change in MIC by the addition of PG” value with MSSA ATCC25923 [1] and in the test with MRSA ATCC43300 [2] was “doubled” each time.

EGCG-eicosanoate [EGCG-C20] came in with a minimum inhibitory concentration (MIC) in test [5] of 128 µg/mL.

For EGCG-laurate [EGCG-C12], the MIC in test [5] was 16 µg/mL; in test [6], 8 µg/mL. Further, in test [5] (MRSA, FIG. 1 and Table 3), the “inhibition of propagation (MIC, turbidity OD600 nm)” value is on record as “remarkable propagation-inhibiting effect”.

Molecule EGCG-octanonate [EGCG-C8] returned a minimum inhibitory concentration (MIC) in test [6] of 8 µg/mL.
